# Assay results taken from US10364360B2, “Surface coating material, coating film, and hydrophilic oil repellent member” (MITSUBISHI MATERIALS CORPORATION, priority 2014, dated 2019).
# Experiment: Solubility of the compound in water
# Type: physicochemical
# Settings: room temperature (25° C.)
# Procedure: 23.5 g of perfluoro(3-dibutylaminopropionic acid) was neutralized with 1.5 g of calcium hydroxide in a methanol/water mixed solution. The precipitated crystals were separated by filtration, and dried at 100° C., whereby 23.5 g of perfluoro(3-dibutylaminopropionic acid) calcium represented by the following Formula (378) was obtained (yield of 97%). The solubility of the present compound in water at room temperature (25° C.) was 2 [g/100 g-H2O].
smiles,measurement,value
"O=C(O)C(F)(F)C(F)(F)N(C(F)(F)C(F)(F)C(F)(F)C(F)(F)F)C(F)(F)C(F)(F)C(F)(F)C(F)(F)F.[Ca] [Synthesis Example 3, perfluoro(3-dibutylaminopropionic acid) calcium]",solubility of the present compound in water,2 g/100 g-H2O
